Measurements reported in US9889135B2, “Companion diagnostic for CDK4 inhibitors” (Memorial Sloan-Kettering Cancer Center, priority 2013, dated 2018).

Key:
[1] = system: LS8107, LS7785-10, LS7785-1 and LS8313 cells; assay: SA-β-gal and SAHF (HP1γ) senescence staining, non-responder lines; assay type: cell-based, human; conditions: LS7785-1, LS7785-10, LS8107 and LS8313; even at ten-fold increased concentration
Text: Mean percentage standard deviation). […] (A) Senescence-associated β-galactosidase and (B) HP1γ staining for senescence associated heterochromatic foci (SAHF) formation was quantitated for three or more independent experiments for each cell line. […] Representative phase contrast micrographs of cells stained for SA-β-gal or immunofluorescence staining for HP1γ in two of the cell lines before (ctrl) and after (PD) drug treatment are shown in the insets of FIGS. 2A and 2B, respectively. (C) BrdU incorporation. […] Error bars represent the standard deviation of the mean calculated from three independent trials. […] Cell number was quantitated by DAPI staining and β-galactosidase staining quantitated as a proportion of total cells. Senescence associated heterochromatic foci were quantitated after cells were fixed with 4% paraformaldehyde, permeabilized with 0.1% Triton, blocked with 2% FBS, and stained with antibodies against HP1γ (1:5000 dilution, 2MOD-1G6 Millipore). Senescent cells were identified by immunofluorescence after treatment of slides with anti-mouse secondary antibodies and quantitation of focal SAHF as a percent of total cells (Leica Upright Confocal SP5 confocal microscope). […] Cell area was measured by with Metamorph software to calculate relative area per cell.

[2] = system: WD/DDLS; conditions: cited from earlier work
[3] = system: E2F7 in WD/DDLS cell lines; assay: E2F7 levels by immunoblot; assay type: cell-based, human; conditions: 48 hours
Text: FIG. 24. […] Tubulin is a loading control. This experiment was repeated at least twice for each cell line.

[4] = system: γH2AX and 53BP1 foci in LS8107 and LS7785-10 cells; assay: DNA damage foci; assay type: cell-based, human
Text: (§1) Extracts from control and irradiated mouse embryo fibroblasts were included as a control. Tubulin is a control. (B) γH2AX and 53BP1 foci were scored in the indicated cell lines. As per (Doll et al., 2009; […] et al., 2012) having a cell with greater than 10 foci (white) is considered positive for DNA damage. As expected for WD/DDLS cell lines the basal level of DNA damage was quite high.

[5] = system: γH2AX and 53BP1 foci in LS8817 cells; assay: DNA damage foci; assay type: cell-based, human
Text: as §1

[6] = system: LS8817 cells; assay: PD0332991 induced senescence after knock down of p53 or INK4A products; assay type: cell-based, human
Protocol: LS8817 cells were infected with lentiviruses expressing either a scrambled (shSCR) or two independent p53 targeting (shp53a and shp53d2) shRNAs. […] The accumulation of senescence associated β-galactosidase (top), and the expression of MDM2 and p53 were determined by immunoblot (bottom). Coomassie staining of the gel indicated equivalent loading.

[7] = system: WD/DDLS; assay: phase II clinical trial (NCT01209598), tumor response by CT scan, RECIST; assay type: in vivo, human
Protocol: FIG. 7. […] GAPDH serves as a loading control.
Antibodies against CDK4 (3F121), MDM2 (N-20 and SMP14), total RB (IF8), Cyclin A (H432), p16 (C20), p53 (DO-1 and Bp53-12), tubulin (C20) and FLAG (M2) were obtained from Santa Cruz Biotechnology, phospho-Rb 780 (#9307) from Cell Signalling, and ARF (3642) from Abeam, HAUSP (A300-033A) from Bethyl Laboratories. Treated cells were lysed with buffer composed of 50 mM Tris-HCl, pH7.4, 250 mM NaCl, 5 mM EDTA, 0.5% NP40, 2 mM PMSF, and supplemented with protease inhibitors. Eighty micrograms of protein were resolved by SDS-PAGE and transferred to PVDF membranes. Membranes were incubated overnight with antibodies (1:1000). […] Pre-treatment biopsies were collected within two weeks of the first dose and post-treatment biopsies collected after at last three weeks of treatment. Extracts were prepared in 50 mM Tris-HCl, pH7.4, 150 mM NaCl, 1 mM EDTA, 1% NP40, 0.25% sodium deoxycholate and supplemented with mini-protease inhibitor cocktail (Roche). Tumor response was assessed by reference radiologist by CT scan every six weeks for 36 weeks, and every 12 weeks thereafter.

[8] = system: RB-positive WD/DDLS; conditions: two patients with RB-positive WD/DDLS; cited from earlier work
[9] = system: LS6736 cells; assay: SA-β-gal and HP1γ staining in LS6736; assay type: cell-based, human; conditions: LS6736 (MDM2 amplified, CDK4 not); seven days
Protocol: Cells were plated at a concentration of 25,000 per well in a 4-well chamber slides (Lab-Tek) and treated for seven days with drug or shRNA as described above and stained for senescence-associated β-galactosidase (Cell Signaling kit #9860). Cell number was quantitated by DAPI staining and β-galactosidase staining quantitated as a proportion of total cells. Senescence associated heterochromatic foci were quantitated after cells were fixed with 4% paraformaldehyde, permeabilized with 0.1% Triton, blocked with 2% FBS, and stained with antibodies against HP1γ (1:5000 dilution, 2MOD-1G6 Millipore). Senescent cells were identified by immunofluorescence after treatment of slides with anti-mouse secondary antibodies and quantitation of focal SAHF as a percent of total cells (Leica Upright Confocal SP5 confocal microscope). Actin was marked using phalloidin staining (1:500, Invitrogen) and cells were counterstained with DAPI. Cell area was measured by with Metamorph software to calculate relative area per cell.

For `CC(=O)c1c(C)c2cnc(Nc3ccc(N4CCNCC4)cn3)nc2n(C2CCCC2)c1=O` [PD0332991], the “number of SA-β-gal or SAHF positive cells” value [1] is listed as “no increase”, the “patients with prolonged stable disease” value ([2]; 30 WD/DDLS patients) is listed as 66% and the “time at which one patient achieved a RECIST partial response” value ([2]; one patient) is listed as 74 weeks. The myelosuppression ([2]; patients) was “common”, the tolerability ([2]; patients) was “generally well-tolerated” and the “decrease in tumor size” value ([2]; three other patients, favorable response that did not meet RECIST) was “at least 10%”. The E2F7 protein amount ([3]; LS8107) was “did not change”, the E2F7 protein ([3]; LS8817, LS0082 and LS8313) was “induced accumulation” and the number of foci [4] was “largely unaffected”. The “number of γH2Ax and 5313P1 foci” value [5] was “reduced”, the PD0332991 induced senescence ([6]; p16 and Arf knocked down) was “not affected” and the SA-β-gal positive cells ([6]; p53 deficient cells (two independent shRNAs)) was “still accumulated”. For the same molecule, the “patients who performed well on the drug (RECIST)” value ([7]; of nine patients with pre- and post-treatment biopsies) was “five”, the tumor size decrease ([7]; patient 1, RECIST response, as of March 2013, 125 mg daily for 21 days, seven days of rest) was “greater than 60%” and the clinical response [8] was “prolonged stable disease lasting several years”. For the same molecule, the “number of SA-β-gal and SAHF (HP1γ) positive cells” value [9] was “did not increase”.
